Assay results taken from US6627628B1, “Substituted 4-amino-2-aryl-cyclopenta[d]pyrimidines, their production and use and pharmaceutical preparations containing same” (Aventis Pharma Deutschland, GmbH, priority 1998, dated 2003).

Key:
[1] = biological target: T1, soluble guanylate cyclase (sGC) (Bos taurus, UniProt P16068+P19687); experiment: Activation of soluble guanylate cyclase (cGMP enzyme immunoassay); format: biochemical; settings: sGC isolated from bovine lung; test substance 50 μM; 5% DMSO; 37° C., 15 to 20 minutes; [cGMP]test substance/[cGMP]control (basal enzyme activity)
T1 construct: The sGC employed had been isolated from bovine lung; from tissue; host or cells: bovine lung
T1 sequence (P19687 1-691): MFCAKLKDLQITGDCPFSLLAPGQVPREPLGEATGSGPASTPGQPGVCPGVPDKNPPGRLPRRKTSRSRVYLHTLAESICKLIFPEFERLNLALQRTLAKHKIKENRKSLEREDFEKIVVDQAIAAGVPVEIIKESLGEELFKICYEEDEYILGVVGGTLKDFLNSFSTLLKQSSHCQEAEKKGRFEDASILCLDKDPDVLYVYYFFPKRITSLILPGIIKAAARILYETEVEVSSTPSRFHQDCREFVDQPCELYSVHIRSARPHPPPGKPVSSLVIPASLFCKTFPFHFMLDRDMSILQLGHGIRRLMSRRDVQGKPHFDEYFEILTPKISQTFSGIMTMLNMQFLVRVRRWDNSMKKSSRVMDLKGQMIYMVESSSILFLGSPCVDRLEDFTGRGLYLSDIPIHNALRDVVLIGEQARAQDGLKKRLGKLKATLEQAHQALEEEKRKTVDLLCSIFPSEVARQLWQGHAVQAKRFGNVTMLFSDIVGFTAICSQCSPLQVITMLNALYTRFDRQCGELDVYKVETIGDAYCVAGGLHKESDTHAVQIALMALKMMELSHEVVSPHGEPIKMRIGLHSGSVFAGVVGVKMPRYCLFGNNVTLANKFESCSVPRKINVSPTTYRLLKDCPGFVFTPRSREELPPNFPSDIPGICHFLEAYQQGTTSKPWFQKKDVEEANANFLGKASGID
T1 sequence (P16068 1-619): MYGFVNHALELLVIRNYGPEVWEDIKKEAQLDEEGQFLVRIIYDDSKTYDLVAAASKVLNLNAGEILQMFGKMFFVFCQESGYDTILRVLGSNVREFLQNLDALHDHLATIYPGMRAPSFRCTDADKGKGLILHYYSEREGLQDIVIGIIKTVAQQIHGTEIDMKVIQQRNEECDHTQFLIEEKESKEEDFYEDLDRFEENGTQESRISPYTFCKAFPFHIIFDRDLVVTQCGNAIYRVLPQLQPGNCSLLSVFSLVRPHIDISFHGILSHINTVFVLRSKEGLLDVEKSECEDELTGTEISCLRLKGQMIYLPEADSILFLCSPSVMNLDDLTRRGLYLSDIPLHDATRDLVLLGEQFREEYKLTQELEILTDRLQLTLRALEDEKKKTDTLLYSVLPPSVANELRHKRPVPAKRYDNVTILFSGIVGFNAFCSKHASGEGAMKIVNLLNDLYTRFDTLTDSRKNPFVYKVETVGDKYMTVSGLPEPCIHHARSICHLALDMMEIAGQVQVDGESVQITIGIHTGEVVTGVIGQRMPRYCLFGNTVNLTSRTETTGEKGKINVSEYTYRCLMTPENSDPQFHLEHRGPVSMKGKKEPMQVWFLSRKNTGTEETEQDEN
Protocol: Activation of Soluble Guanylate Cyclase
The activation of soluble guanylate cyclase (sGC), which catalyzes the conversion of guanosine triphosphate (GTP) to cyclic guanosine monophosphate (cGMP) and pyrophosphate, by the compounds according to the invention was quantified with the aid of an enzyme immunoassay (EIA) from Amersham. For this, the test substances were first incubated with sGC in microtiter plates and then the quantity of the resulting cGMP was determined.
The test solutions (100 μl per well) contained 50 mM triethanolamine (TEA) buffer (pH 7.5), 3 mM MgCl2, 3 mM reduced glutathione (GSH), 0.1 mM GTP, 1 mM 3-isobutyl-1-methylxanthine (IBMX), suitably diluted enzyme solution and the test substance or, in the control experiments, solvent. The test substances were dissolved in dimethyl sulfoxide (DMSO) and the solution was diluted with DMSO/water such that the final concentration c of test substance in the test batch was 50 μM. The DMSO concentration in the test batch was 5% (v/v). The reaction was started by addition of the sGC. The reaction mix was incubated at 37° C. for 15 to 20 minutes and then stopped by ice-cooling and addition of the stop reagent (50 mM EDTA, pH 8.0). An aliquot of 50 μl was taken and employed for the determination of the cGMP content using the acetylation protocol of the Amersham cGMP EIA kit. The absorption of the samples was measured at 450 nm (reference wavelength 620 nm) in a microtiter plate reading apparatus. The cGMP concentration was determined by means of a calibration curve, which was obtained under the same experimental conditions.
n-fold stimulation=[cGMP]test substance/[cGMP]control.

Structure (SMILES)	n-fold stimulation at c = 50 μM [1] [fold]	melting point [°C]
Clc1cccc(-c2nc3c(c(NC4CCCC4)n2)CCC3)c1 [Example 32, 2-(3-Chlorophenyl)-4-cyclopentylamino-6,7-dihydro-5H-cyclopenta[d]pyrimidine]	15	129
CCN(CC)c1nc(-c2cccc(Cl)c2)nc2c1CCC2.Cl [Example 25, 2-(3-Chlorophenyl)-4-diethylamino-6,7-dihydro-5H-cyclopenta[d]pyrimidine hydrochloride]	6	185
OCCCCNc1nc(-c2cc(Cl)cc(Cl)c2)nc2c1CCC2 [Example 48, 2-(3,5-Dichlorophenyl)-4-(4-hydroxybutylamino)-6,7-dihydro-5H-cyclopenta[d]-pyrimidine]	9	142
Cc1ccc(-c2nc3c(c(NC4CCCC4)n2)CCC3)cc1 [Example 41, 2-(4-Methylphenyl)-4-cyclopentylamino-6,7-dihydro-5H-cyclopenta[d]pyrimidine]	9	183
Clc1ccc(-c2nc3c(c(NC4CCCC4)n2)CCC3)cc1 [Example 15, 2-(4-Chlorophenyl)-4-cyclopentylamino-6,7-dihydro-5H-cyclopenta[d]pyrimidine]	7	
CCCN(CCC)c1nc(-c2ccc(C)cc2)nc2c1CCC2 [Example 45, 2-(4-Methylphenyl)-4-dipropylamino-6,7-dihydro-5H-cyclopenta[d]pyrimidine]	7	117
Clc1cc(Cl)cc(-c2nc3c(c(N4CCCCC4)n2)CCC3)c1 [Example 53, 2-(3,5-Dichlorophenyl)-4-piperidino-6,7-dihydro-5H-cyclopenta[d]pyrimidine]		147
Cc1ccc(-c2nc3c(c(N4CCCC4)n2)CCC3)cc1 [Example 46, 2-(4-Methylphenyl)-4-pyrrolidino-6,7-dihydro-5H-cyclopenta[d]pyrimidine]		203
N#Cc1ccc(-c2nc3c(c(N4CCCCC4)n2)CCC3)cc1 [Example 72, 2-(4-Cyanophenyl)-4-piperidino-6,7-dihydro-5H-cyclopenta[d]pyrimidine]		152
COc1ccc(-c2nc3c(c(NC4CCCC4)n2)CCC3)cc1OC [Example 63, 2-(3,4-Dimethoxyphenyl)-4-cyclopentylamino-6,7-dihydro-5H-cyclopenta[d]-pyrimidine]		138
Clc1cccc(-c2nc3c(c(N4CCOCC4)n2)CCC3)c1 [Example 20, 2-(3-Chlorophenyl)-4-morpholino-6,7-dihydro-5H-cyclopenta[d]pyrimidine]		132
OCCNc1nc(-c2ccc(Cl)cc2)nc2c1CCC2 [Example 18, 2-(4-Chlorophenyl)-4-(2-hydroxyethylamino)-6,7-dihydro-5H-cyclopenta[d]-pyrimidine]		160
COCCCNc1nc(-c2ccc(OC)c(OC)c2)nc2c1CCC2 [Example 62, 2-(3,4-Dimethoxyphenyl)-4-(3-methoxypropylamino)-6,7-dihydro-5H-cyclopenta-[d]pyrimidine]		107
COc1cccc(CCNc2nc(-c3ccc(Cl)cc3)nc3c2CCC3)c1.Cl		230
N#Cc1ccc(-c2nc3c(c(NCc4cccnc4)n2)CCC3)cc1 [Example 74, 2-(4-Cyanophenyl)-4-((3-pyridylmethyl)amino)-6,7-dihydro-5H-cyclopenta[d]-pyrimidine]		219
COc1ccc(-c2nc3c(c(N4CCCCCC4)n2)CCC3)cc1 [Example 60, 2-(4-Methoxyphenyl)-4-hexamethyleneimino-6,7-dihydro-5H-cyclopenta[d]-pyrimidine]		99
COc1ccc(-c2nc3c(c(N(CCO)CCO)n2)CCC3)cc1OC [Example 68, 2-(3,4-Dimethoxyphenyl)-4-(di-(2-hydroxyethyl)amino)-6,7-dihydro-5H-cyclopenta[d]pyrimidine]		115
CCCN(CCC)c1nc(-c2cc(Cl)cc(Cl)c2)nc2c1CCC2 [Example 52, 2-(3,5-Dichlorophenyl)-4-dipropylamino-6,7-dihydro-5H-cyclopenta[d]pyrimidine]		120
OCCNc1nc(-c2cccc(Cl)c2)nc2c1CCC2 [Example 21, 2-(3-Chlorophenyl)-4-(2-hydroxyethylamino)-6,7-dihydro-5H-cyclopenta[d]-pyrimidine]		150
CCCCNc1nc(-c2cccc(Cl)c2)nc2c1CCC2 [Example 33, 2-(3-Chlorophenyl)-4-butylamino-6,7-dihydro-5H-cyclopenta[d]pyrimidine]	5	
COc1ccc(-c2nc3c(c(NC4CCCCC4)n2)CCC3)cc1 [Example 57, 2-(4-Methoxyphenyl)-4-cyclohexylamino-6,7-dihydro-5H-cyclopenta[d]-pyrimidine]		138
CCCCNc1nc(-c2ccc(OC)c(OC)c2)nc2c1CCC2 [Example 65, 2-(3,4-Dimethoxyphenyl)-4-butylamino-6,7-dihydro-5H-cyclopenta[d]pyrimidine]		115
CCCN(CCC)c1nc(-c2ccc(OC)cc2)nc2c1CCC2 [Example 59, 2-(4-Methoxyphenyl)-4-dipropylamino-6,7-dihydro-5H-cyclopenta[d]pyrimidine]		74
Clc1ccc(-c2nc3c(c(NCc4cccnc4)n2)CCC3)cc1 [Example 19, 2-(4-Chlorophenyl)-4-((3-pyridylmethyl)amino)-6,7-dihydro-5H-cyclopenta[d]-pyrimidine]		209
COc1ccc(-c2nc3c(c(N4CC(C)OC(C)C4)n2)CCC3)cc1OC (stereo not shown) [Example 67, 2-(3,4-Dimethoxyphenyl)-4-(2,6-dimethylmorpholino)-6,7-dihydro-5H-cyclopenta[d]pyrimidine]		142
COc1ccc(-c2nc3c(c(NC4CCCC4)n2)CCC3)cc1 [Example 56, 2-(4-Methoxyphenyl)-4-cyclopentylamino-6,7-dihydro-5H-cyclopenta[d]-pyrimidine]		154
Clc1ccc(-c2nc3c(c(N4CCSCC4)n2)CCC3)cc1 [Example 24, 2-(4-Chlorophenyl)-4-thiomorpholino-6,7-dihydro-5H-cyclopenta[d]pyrimidine]		159
CS(=O)(=O)O.O[C@H]1CC[C@H](Nc2nc(-c3cc(Cl)cc(Cl)c3)nc3c2CCC3)CC1 [Example 16, 2-(3,5-Dichlorophenyl)-4-(trans-4-hydroxycyclohexylamino)-6,7-dihydro-5H-cyclopenta[d]pyrimidine methanesulfonic acid salt]	34	
Clc1cccc(-c2nc3c(c(N4CCSCC4)n2)CCC3)c1 [Example 38, 2-(3-Chlorophenyl)-4-thiomorpholino-6,7-dihydro-5H-cyclopenta[d]pyrimidine]		134
